The source of these data is patent US9604961B2, “Histone demethylase inhibitors” (Celgene Quanticel Research, Inc., priority 2012, dated 2017).

What all share (type): biochemical
Assay [1] deals with Jarid1A (Homo sapiens (Human), UniProt P29375). Put plainly: Jarid1A in vitro enzyme inhibition assay (TR-FRET). From the text:
The enzymatic assay of Jarid1A activity is based upon Time Resolved-Fluorescence Resonance Energy Transfer (TR-FRET) detection.
A general note: TR-FRET usually uses a lanthanide donor and a delayed reading to cut background.

Assay [2] addresses Jarid1B (Homo sapiens (Human), UniProt Q9UGL1). Put plainly: Jarid1B in vitro enzyme inhibition assay (TR-FRET).
Description: This assay determines the ability of a test compound to inhibit Jarid1A, Jarid1B, JMJD2C, and JMJD2A demethylase activity.
The ability of test compounds to inhibit the activity of Jarid1B was determined in 384-well plate format under the following reaction conditions: 0.8 nM Jarid1B, 300 nM H3K4me3-biotin labeled peptide (Anaspec cat #64357), 2 μM alpha-ketoglutaric acid in assay buffer of 50 mM HEPES, pH7.3, 0.005% Brij35, 0.5 mM TCEP, 0.2 mg/ml BSA, 50 μM sodium L-ascorbate, and 2 μM ammonium iron(II) sulfate. Reaction product was determined quantitatively by TR-FRET after the addition of detection reagent Phycolink Streptavidin-allophycocyanin (Prozyme) and Europium-anti-mono- or di-methylated histone H3 lysine 4 (H3K4me1-2) antibody (PerkinElmer) in the presence of 5 mM EDTA in LANCE detection buffer (PerkinElmer) at a final concentration of 25 nM and 1 nM, respectively.
The assay reaction was initiated by the following: 2 μl of the mixture of 900 nM H3K4me3-biotin labeled peptide and 6 μM alpha-ketoglutaric acid with 2 μl of 11-point serial diluted inhibitor in 3% DMSO was added to each well of the plate, followed by the addition of 2 μl of 2.4 nM Jarid1B to initiate the reaction. The reaction mixture was incubated at room temperature for 30 minutes, and terminated by the addition of 6 μl of 5 mM EDTA in LANCE detection buffer containing 50 nM Phycolink Streptavidin-allophycocyanin and 2 nM Europium-anti-H3K4me1-2 antibody. Plates were read by EnVisionMultilabel Reader in TR-FRET mode (excitation at 320 nm, emission at 615 nm and 665 nm) after 1 hour incubation at room temperature. A ratio was calculated (665/615) for each well and fitted to determine inhibition constant (IC50).
The target of assay [3] is JMJD2C (Homo sapiens (Human), UniProt Q9H3R0). In words: JMJD2C in vitro enzyme inhibition assay (TR-FRET).
Description: Baculovirus expressed JMJD2C (GenBank Accession #BC143571, AA 2-372) was purchased from BPS Bioscience (Cat#50105).
The ability of test compounds to inhibit the activity of JMJD2C was determined in 384-well plate format under the following reaction conditions: 0.3 nM JMJD2C, 300 nM H3K9me3-biotin labeled peptide (Anaspec cat #64360), 2 μM alpha-ketoglutaric acid in assay buffer of 50 mM HEPES, pH7.3, 0.005% Brij35, 0.5 mM TCEP, 0.2 mg/ml BSA, 50 μM sodium L-ascorbate, and 2 μM ammonium iron(II) sulfate. Reaction product was determined quantitatively by TR-FRET after the addition of detection reagent Phycolink Streptavidin-allophycocyanin (Prozyme) and Europium-anti-di-methylated histone H3 lysine 9 (H3K9me2) antibody (PerkinElmer) in the presence of 5 mM EDTA in LANCE detection buffer (PerkinElmer) at a final concentration of 50 nM and 1 nM, respectively.
The assay reaction was initiated by the following: 2 μl of the mixture of 900 nM H3K9me3-biotin labeled peptide and 6 μM alpha-ketoglutaric acid with 2 μl of 11-point serial diluted inhibitor in 3% DMSO were added to each well of the plate, followed by the addition of 2 μl of 0.9 nM JMJD2C to initiate the reaction. The reaction mixture was incubated at room temperature for 30 minutes, and terminated by the addition of 6 μl of 5 mM EDTA in LANCE detection buffer containing 100 nM Phycolink Streptavidin-allophycocyanin and 2 nM Europium-anti-H3K9me2 antibody. Plates were read by EnVisionMultilabel Reader in TR-FRET mode (excitation at 320 nm, emission at 615 nm and 665 nm) after 1 hour incubation at room temperature. A ratio was calculated (665/615) for each well and fitted to determine inhibition constant (IC50).

Structures are written as SMILES.

Chain of JMJD2C (Q9H3R0 2-372): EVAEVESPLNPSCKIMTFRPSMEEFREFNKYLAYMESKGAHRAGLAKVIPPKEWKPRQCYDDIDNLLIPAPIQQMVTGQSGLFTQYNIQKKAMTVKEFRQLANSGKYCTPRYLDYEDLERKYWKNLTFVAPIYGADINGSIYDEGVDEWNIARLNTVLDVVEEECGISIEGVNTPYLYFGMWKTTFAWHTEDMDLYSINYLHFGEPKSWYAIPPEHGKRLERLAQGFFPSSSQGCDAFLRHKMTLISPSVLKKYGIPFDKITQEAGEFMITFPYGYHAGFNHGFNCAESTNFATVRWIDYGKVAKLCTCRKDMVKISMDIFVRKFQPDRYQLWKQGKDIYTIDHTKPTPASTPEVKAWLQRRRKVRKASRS
Chain of Jarid1A (P29375 1-1090): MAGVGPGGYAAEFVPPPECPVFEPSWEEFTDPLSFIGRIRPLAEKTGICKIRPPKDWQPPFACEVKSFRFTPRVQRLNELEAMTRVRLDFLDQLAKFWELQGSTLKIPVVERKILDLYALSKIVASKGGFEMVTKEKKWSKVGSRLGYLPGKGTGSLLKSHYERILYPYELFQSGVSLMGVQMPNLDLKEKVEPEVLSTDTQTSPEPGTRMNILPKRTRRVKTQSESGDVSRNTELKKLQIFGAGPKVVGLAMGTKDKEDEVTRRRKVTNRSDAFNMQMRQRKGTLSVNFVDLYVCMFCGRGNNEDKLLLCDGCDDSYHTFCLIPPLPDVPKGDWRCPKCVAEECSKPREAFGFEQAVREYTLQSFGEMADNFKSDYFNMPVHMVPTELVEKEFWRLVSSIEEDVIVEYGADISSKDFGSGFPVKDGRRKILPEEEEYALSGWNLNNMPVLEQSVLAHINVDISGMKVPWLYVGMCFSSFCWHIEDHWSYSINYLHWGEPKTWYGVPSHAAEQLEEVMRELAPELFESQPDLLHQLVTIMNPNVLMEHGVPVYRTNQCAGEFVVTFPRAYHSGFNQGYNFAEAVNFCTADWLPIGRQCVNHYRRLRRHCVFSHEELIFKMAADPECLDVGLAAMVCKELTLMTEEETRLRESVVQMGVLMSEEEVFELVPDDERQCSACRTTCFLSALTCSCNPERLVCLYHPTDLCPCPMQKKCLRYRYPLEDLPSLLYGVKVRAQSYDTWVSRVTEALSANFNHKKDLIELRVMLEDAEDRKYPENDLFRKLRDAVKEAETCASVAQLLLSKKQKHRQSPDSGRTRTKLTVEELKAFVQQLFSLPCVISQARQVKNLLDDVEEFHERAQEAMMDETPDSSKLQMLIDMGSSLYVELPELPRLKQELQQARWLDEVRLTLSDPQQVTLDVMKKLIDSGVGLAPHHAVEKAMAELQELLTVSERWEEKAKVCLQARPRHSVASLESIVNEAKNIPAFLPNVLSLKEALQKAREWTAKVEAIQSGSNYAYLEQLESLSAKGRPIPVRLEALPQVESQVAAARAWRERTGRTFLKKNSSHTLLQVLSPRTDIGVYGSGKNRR
Chain of Jarid1B (Q9UGL1 2-751): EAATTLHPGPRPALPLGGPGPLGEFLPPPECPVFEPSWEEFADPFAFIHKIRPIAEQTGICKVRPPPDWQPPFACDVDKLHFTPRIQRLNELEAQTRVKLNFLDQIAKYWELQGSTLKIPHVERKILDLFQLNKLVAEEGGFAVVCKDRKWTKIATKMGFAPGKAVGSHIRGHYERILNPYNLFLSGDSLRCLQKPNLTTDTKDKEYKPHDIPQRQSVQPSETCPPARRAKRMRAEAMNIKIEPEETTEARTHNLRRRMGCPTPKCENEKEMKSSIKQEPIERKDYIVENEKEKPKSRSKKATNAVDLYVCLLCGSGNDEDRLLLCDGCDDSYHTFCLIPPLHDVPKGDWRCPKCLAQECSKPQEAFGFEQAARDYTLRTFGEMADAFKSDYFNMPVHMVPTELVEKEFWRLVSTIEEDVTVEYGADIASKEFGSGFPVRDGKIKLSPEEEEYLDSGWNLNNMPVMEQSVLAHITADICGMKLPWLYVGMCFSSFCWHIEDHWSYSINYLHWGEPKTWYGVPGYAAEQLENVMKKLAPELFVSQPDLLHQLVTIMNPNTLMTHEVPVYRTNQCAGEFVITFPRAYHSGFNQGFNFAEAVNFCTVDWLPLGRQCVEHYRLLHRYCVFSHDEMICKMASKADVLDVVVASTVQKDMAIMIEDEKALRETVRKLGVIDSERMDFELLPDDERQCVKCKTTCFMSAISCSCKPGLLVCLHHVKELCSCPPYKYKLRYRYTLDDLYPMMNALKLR

The IC50 is the midpoint of a concentration-inhibition curve. High values mean weaker potency, low ones greater potency. As to `Cc1ccc(COc2ccnn2-c2cc(C(=O)O)ccn2)c(F)c1` [Example 131, 2-[5-[(2-fluoro-4-methylphenyl)methoxy]pyrazol-1-yl]pyridine-4-carboxylic acid], the IC50 in assay [1] is < 100 nM; in assay [2], < 100 nM; in assay [3] it was 100 to 1000 nM.

Regarding `Cc1ccc(COc2ccnn2-c2cc(C(=O)O)ccn2)c(C#N)c1` [Example 134, 2-[5-[(2-cyano-4-methylphenyl)methoxy]pyrazol-1-yl]pyridine-4-carboxylic acid], the IC50 in assay [1] is < 100 nM; in assay [2], < 100 nM; in assay [3], 100 to 1000 nM.

For `CCc1cc(C)ccc1COc1ccnn1-c1cc(C(=O)O)ccn1` [Example 135, 2-[5-[(2-ethyl-4-methylphenyl)methoxy]pyrazol-1-yl]pyridine-4-carboxylic acid], the half-inhibitory concentration (IC50) in assay [1] was 100 to 1000 nM; in assay [2], 100 to 1000 nM; in assay [3], 1000 to 10000 nM.

As to `CC(Oc1cc(Cl)ccc1COc1ccnn1-c1cc(C(=O)O)ccn1)c1ccccc1` (stereo not drawn) [Example 136, 2-[5-[[4-chloro-2-(1-phenylethoxy)phenyl]methoxy]pyrazol-1-yl]pyridine-4-carboxylic acid], the half-maximal inhibitory concentration (IC50) was 100 to 1000 nM in assay [1], 100 to 1000 nM in assay [2] and 1000 to 10000 nM in assay [3].

For `CC(Oc1cc(F)ccc1COc1ccnn1-c1cc(C(=O)O)ccn1)c1ccccc1` (stereo not drawn) [Example 137, 2-[5-[[4-fluoro-2-(1-phenylethoxy)phenyl]methoxy]pyrazol-1-yl]pyridine-4-carboxylic acid], the 50% inhibitory concentration (IC50) in assay [1] was in the range of 100 to 1000 nM; in assay [2], 100 to 1000 nM; in assay [3], 1000 to 10000 nM.

Take `O=C(O)c1ccnc(-n2nccc2OCc2ccc(Cl)c(OCc3ccc(F)cc3)c2)c1` [Example 138, 2-[5-[[4-chloro-3-[(4-fluorophenyl)methoxy]phenyl]methoxy]pyrazol-1-yl]pyridine-4-carboxylic acid]: the IC50 in assay [1] was < 100 nM; in assay [2], < 100 nM; in assay [3], 100 to 1000 nM.

As to `O=C(O)c1ccnc(-n2nccc2OCc2ccc(Cl)c(OCC(F)(F)F)c2)c1` [Example 141, 2-[5-[[4-chloro-3-(2,2,2-trifluoroethoxy)phenyl]methoxy]pyrazol-1-yl]pyridine-4-carboxylic acid], the IC50 in assay [1] was < 100 nM; in assay [2], < 100 nM; in assay [3], 100 to 1000 nM.

As for `Cc1cc(Br)ccc1COc1ccnn1-c1cc(C(=O)O)ccn1` [Example 142, 2-[5-[(4-bromo-2-methylphenyl)methoxy]pyrazol-1-yl]pyridine-4-carboxylic acid], the IC50 in assay [1], in assay [2] and in assay [3] was 100 to 1000 nM each time.

`COc1cc(Br)ccc1COc1ccnn1-c1cc(C(=O)O)ccn1` [Example 143, 2-[5-[(4-bromo-2-methoxyphenyl)methoxy]pyrazol-1-yl]pyridine-4-carboxylic acid]: the figures for the IC50 in assay [1], in assay [2] and in assay [3] were < 100 nM, < 100 nM and 100 to 1000 nM, respectively.

`Cc1cc(I)ccc1COc1ccnn1-c1cc(C(=O)O)ccn1` [Example 144, 2-[5-[(4-iodo-2-methylphenyl)methoxy]pyrazol-1-yl]pyridine-4-carboxylic acid]: the values for the IC50 in assay [1], in assay [2] and in assay [3] were < 100 nM, < 100 nM and 100 to 1000 nM, respectively.

Consider `COc1cc(I)ccc1COc1ccnn1-c1cc(C(=O)O)ccn1` [Example 145, 2-[5-[(4-iodo-2-methoxyphenyl)methoxy]pyrazol-1-yl]pyridine-4-carboxylic acid], for which the IC50 in assay [1] is < 100 nM; in assay [2] it was < 100 nM; in assay [3], 100 to 1000 nM.

On to `O=C(O)c1ccnc(-n2nccc2OC2CCc3cc(F)ccc32)c1` (stereo not drawn) [Example 146, 2-[5-[(5-fluoro-2,3-dihydro-1H-inden-1-yl)oxy]pyrazol-1-yl]pyridine-4-carboxylic acid], for which the IC50 in assay [1], in assay [2] and in assay [3] was 100 to 1000 nM in each case.

Take `O=C(O)c1ccnc(-n2nccc2OC2CCc3cc(Cl)ccc32)c1` (stereo not drawn) [Example 147, 2-[5-[(5-chloro-2,3-dihydro-1H-inden-1-yl)oxy]pyrazol-1-yl]pyridine-4-carboxylic acid]: the half-inhibitory concentration (IC50) lay in the range of 100 to 1000 nM in assay [1], 100 to 1000 nM in assay [2] and 1000 to 10000 nM in assay [3].

On to `O=C(O)c1ccnc(-n2nccc2OC2CCCc3cc(F)ccc32)c1` (stereo not drawn) [Example 148, 2-[5-[(6-fluoro-1,2,3,4-tetrahydronaphthalen-1-yl)oxy]pyrazol-1-yl]pyridine-4-carboxylic acid], for which the figures for the 50% inhibitory concentration (IC50) in assay [1], in assay [2] and in assay [3] were 100 to 1000 nM, 100 to 1000 nM and 1000 to 10000 nM, respectively.

Regarding `O=C(O)c1ccnc(-n2nccc2OC2CCCc3cc(Cl)ccc32)c1` (stereo not drawn) [Example 149, 2-[5-[(6-chloro-1,2,3,4-tetrahydronaphthalen-1-yl)oxy]pyrazol-1-yl]pyridine-4-carboxylic acid], the IC50 was 100 to 1000 nM in assay [1], < 100 nM in assay [2] and 1000 to 10000 nM in assay [3].

Take `CCc1ccc(COc2ccnn2-c2cc(C(=O)O)ccn2)c(Cl)c1` [Example 150, 2-[5-[(2-chloro-4-ethylphenyl)methoxy]pyrazol-1-yl]pyridine-4-carboxylic acid]: the values for the IC50 in assay [1], in assay [2] and in assay [3] were 100 to 1000 nM, 100 to 1000 nM and 1000 to 10000 nM, respectively.

Turning to `CCc1ccc(COc2ccnn2-c2cc(C(=O)O)ccn2)c(F)c1` [Example 151, 2-[5-[(4-ethyl-2-fluorophenyl)methoxy]pyrazol-1-yl]pyridine-4-carboxylic acid], the IC50 in assay [1] was 100 to 1000 nM; in assay [2], < 100 nM; in assay [3], 1000 to 10000 nM.

Consider `O=C(O)c1ccnc(-n2nccc2OCc2ccc(C3CC3)cc2Cl)c1` [Example 152, 2-[5-[(2-chloro-4-cyclopropylphenyl)methoxy]pyrazol-1-yl]pyridine-4-carboxylic acid], for which the IC50 in assay [1] lay in the range of 100 to 1000 nM; in assay [2], 100 to 1000 nM; in assay [3] it was 1000 to 10000 nM.

For the compound `O=C(O)c1ccnc(-n2nccc2OCc2ccc(C3CC3)cc2F)c1` [Example 153, 2-[5-[(4-cyclopropyl-2-fluorophenyl)methoxy]pyrazol-1-yl]pyridine-4-carboxylic acid], the figures for the IC50 in assay [1], in assay [2] and in assay [3] were 100 to 1000 nM, 100 to 1000 nM and 1000 to 10000 nM, respectively.

For `O=C(O)c1ccnc(-n2nccc2OCc2ccc(C3CC3)c(Cl)c2)c1` [Example 154, 2-[5-[(3-chloro-4-cyclopropylphenyl)methoxy]pyrazol-1-yl]pyridine-4-carboxylic acid], the IC50 in assay [1] fell in the range of 100 to 1000 nM; in assay [2] it was 100 to 1000 nM; in assay [3] it was 1000 to 10000 nM.

Turning to `O=C(O)c1ccnc(-n2nccc2OCc2ccc(C3CC3)c(F)c2)c1` [Example 155, 2-[5-[(4-cyclopropyl-3-fluorophenyl)methoxy]pyrazol-1-yl]pyridine-4-carboxylic acid], the IC50 in assay [1] was 100 to 1000 nM; in assay [2], < 100 nM; in assay [3] it was 1000 to 10000 nM.

As to `CN(CCc1cnn(-c2cc(C(=O)NC#N)ccn2)c1)Cc1ccc(F)cc1` [Example 157, N-cyano-2-[4-[2-[(4-fluorophenyl)methyl-methylamino]ethyl]pyrazol-1-yl]pyridine-4-carboxamide], the IC50 in assay [1], in assay [2] and in assay [3] was < 100 nM each time.
